From US20230340011A1 (Asteroid Therapeutics, priority 2022, published 2023)

Assays:
[1] = target: SREBP-2 (Homo sapiens (Human), UniProt Q12772); experiment: In vitro assay SREBP-2: PathHunter U2OS SREBP-2 Nuclear Translocation Cell Line, U18666A-stimulated; assay type: cell-based; settings: PathHunter U2OS SREBP-2 nuclear translocation cells, U18666A 10 μM, overnight (16 hours)
[2] = target: LXRβ (Homo sapiens (Human), UniProt P55055); experiment: In vitro assay LXRβ: PathHunter NHR CHO cells, LXRβ / Steroid Receptor Co-activator Peptide enzyme fragment complementation; assay type: cell-based; settings: PathHunter NHR CHO cells, full-length human LXRβ and SRCP, chemiluminescent signal; read-out: LXRβ PPI
Procedure, shortened: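 Enzyme fragment complementation read-out: CHO cells stably expressing ProLink-tagged full-length human LXRβ plus nuclear enzyme acceptor–SRCP fusion, seeded and held overnight at 37° C. Medium with charcoal-dextran filtered serum; final vehicle 1%. Chemiluminescence measured after signal generation.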

Chain of LXRβ (P55055 whole entry, the tested form may be a part): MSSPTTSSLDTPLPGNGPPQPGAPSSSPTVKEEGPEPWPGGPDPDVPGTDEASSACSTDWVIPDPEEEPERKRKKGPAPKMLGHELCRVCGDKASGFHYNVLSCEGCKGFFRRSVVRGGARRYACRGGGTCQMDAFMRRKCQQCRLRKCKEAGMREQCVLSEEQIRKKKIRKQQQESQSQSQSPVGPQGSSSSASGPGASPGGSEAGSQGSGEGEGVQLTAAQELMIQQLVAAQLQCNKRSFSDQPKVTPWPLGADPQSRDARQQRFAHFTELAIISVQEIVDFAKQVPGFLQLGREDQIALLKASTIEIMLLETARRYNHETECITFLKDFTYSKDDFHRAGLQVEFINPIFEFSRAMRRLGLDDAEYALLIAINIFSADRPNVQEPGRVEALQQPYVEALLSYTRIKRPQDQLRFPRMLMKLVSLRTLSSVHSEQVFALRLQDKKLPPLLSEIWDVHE

Work on Cc1nnc(C(=O)N2CCN(C(=O)CC[C@@H](C)[C@H]3CC[C@H]4[C@@H]5CC=C6C[C@@H](O)CC[C@]6(C)[C@H]5CC[C@]34C)CC2)o1 [Example 540, (R)-4-((3S,8S,9S,10R,13R,14S,17R)-3-hydroxy-10,13-dimethyl-2,3,4,7,8,9,10,11,12,13,14,15,16,17-tetradecahydro-1H-cyclopenta[a]phenanthren-17-yl)-1-(4-(5-methyl-1,3,4-oxadiazole-2-carbonyl)piperazin-1-yl)pentan-1-one] yielded an IC50 [1] of under 250 nM and an EC50 [2] of over 10000 nM.

CON(C(=O)CC[C@@H](C)[C@H]1CC[C@H]2[C@@H]3CC=C4C[C@@H](O)CC[C@]4(C)[C@H]3CC[C@]12C)[C@H](C)CO [Example 71, (R)-4-((3S,8S,9S,10R,13R,14S,17R)-3-hydroxy-10,13-dimethyl-2,3,4,7,8,9,10,11,12,13,14,15,16,17-tetradecahydro-1H-cyclopenta[a]phenanthren-17-yl)-N—((R)-1-hydroxypropan-2-yl)-N-methoxypentanamide] was tested, and the IC50 [1] was 250 to 1000 nM and the EC50 [2] was 250 to 1000 nM.

C[C@H](CC(=O)N1CCN(c2ccncn2)CC1)[C@H]1CC[C@H]2[C@@H]3CC=C4C[C@@H](O)CC[C@]4(C)[C@H]3CC[C@]12C [Example 595, (R)-3-((3S,8S,9S,10R,13R,14S,17R)-3-hydroxy-10,13-dimethyl-2,3,4,7,8,9,10,11,12,13,14,15,16,17-tetradecahydro-1H-cyclopenta[a]phenanthren-17-yl)-1-(4-(pyrimidin-4-yl)piperazin-1-yl)butan-1-one] gave an IC50 [1] of 1000 to 10000 nM and an EC50 [2] of over 10000 nM.

For C[C@H](OC(=O)C(=O)N1CCC1)[C@H]1CC[C@H]2[C@@H]3CC=C4C[C@@H](O)CC[C@]4(C)[C@H]3CC[C@]12C [Example 155, (1S)-1-[(1S,3aS,3bS,7S,9aR,9bS,11aS)-7-hydroxy-9a,11a-dimethyl-1H,2H,3H,3aH,3bH,4H,6H,7H,8H,9H,9aH,9bH,10H,11H,11aH-cyclopenta[a]phenanthren-1-yl]ethyl 2-(azetidin-1-yl)-2-oxoacetate], the IC50 [1] was 1000 to 10000 nM and the EC50 [2] was over 10000 nM.

Compound C[C@H](CCC(=O)N1CCC(OC(=O)N(C)C)CC1)[C@H]1CC[C@H]2[C@@H]3CC=C4C[C@@H](O)CC[C@]4(C)[C@H]3CC[C@]12C [Example 286, 1-((R)-4-((3S,8S,9S,10R,13R,14S,17R)-3-hydroxy-10,13-dimethyl-2,3,4,7,8,9,10,11,12,13,14,15,16,17-tetradecahydro-1H-cyclopenta[a]phenanthren-17-yl)pentanoyl)piperidin-4-yl dimethylcarbamate] has an IC50 [1] of under 250 nM and an EC50 [2] of over 10000 nM.

Work on COc1cncc(N2CCN(C(=O)CC[C@@H](C)[C@H]3CC[C@H]4[C@@H]5CC=C6C[C@@H](O)CC[C@]6(C)[C@H]5CC[C@]34C)CC2)n1 [Example 662, (R)-4-((3S,8S,9S,10R,13R,14S,17R)-3-hydroxy-10,13-dimethyl-2,3,4,7,8,9,10,11,12,13,14,15,16,17-tetradecahydro-1H-cyclopenta[a]phenanthren-17-yl)-1-(4-(6-methoxypyrazin-2-yl)piperazin-1-yl)pentan-1-one] yielded an IC50 [1] of under 250 nM and an EC50 [2] of over 10000 nM.

Compound CC(C)ON(C)C(=O)CC[C@@H](C)[C@H]1CC[C@H]2[C@@H]3CC=C4C[C@@H](O)CC[C@]4(C)[C@H]3CC[C@]12C [Example 14, (R)-4-((3S,8S,9S,10R,13R,14S,17R)-3-hydroxy-10,13-dimethyl-2,3,4,7,8,9,10,11,12,13,14,15,16,17-tetradecahydro-1H-cyclopenta[a]phenanthren-17-yl)-N-isopropoxy-N-methylpentanamide] has an IC50 [1] of 250 to 1000 nM and an EC50 [2] of 250 to 1000 nM.

C[C@H](CCC(=O)N1CCN(C(=O)c2ccn(C)n2)CC1)[C@H]1CC[C@H]2[C@@H]3CC=C4C[C@@H](O)CC[C@]4(C)[C@H]3CC[C@]12C [Example 539, (4R)-4-[(1R,3aS,3bS,7S,9aR,9bS,11aR)-7-hydroxy-9a,11a-dimethyl-1H,2H,3H,3aH,3bH,4H,6H,7H,8H,9H,9aH,9bH,10H,11H,11aH-cyclopenta[a]phenanthren-1-yl]-1-[4-(1-methyl-1H-pyrazole-3-carbonyl)piperazin-1-yl]pentan-1-one] gave an IC50 [1] of under 250 nM and an EC50 [2] of over 10000 nM.

In the case of C[C@H](CCC(=O)N1CCC(C)(C)CC1)[C@H]1CC[C@H]2[C@@H]3CC=C4C[C@@H](O)CC[C@]4(C)[C@H]3CC[C@]12C [Example 5, (R)-1-(4,4-dimethylpiperidin-1-yl)-4-((3S,8S,9S,10R,13R,14S,17R)-3-hydroxy-10,13-dimethyl-2,3,4,7,8,9,10,11,12,13,14,15,16,17-tetradecahydro-1H-cyclopenta[a]phenanthren-17-yl)pentan-1-one], the IC50 [1] is reported as under 250 nM and the EC50 [2] is reported as 1000 to 10000 nM.

For C[C@H](CCC(=O)N1CCC(C(F)(F)F)CC1)[C@H]1CC[C@H]2[C@@H]3CC=C4C[C@@H](O)CC[C@]4(C)[C@H]3CC[C@]12C [Example 82, (R)-4-((3S,8S,9S,10R,13R,14S,17R)-3-hydroxy-10,13-dimethyl-2,3,4,7,8,9,10,11,12,13,14,15,16,17-tetradecahydro-1H-cyclopenta[a]phenanthren-17-yl)-1-(4-(trifluoromethyl)piperidin-1-yl)pentan-1-one], the IC50 [1] was under 250 nM and the EC50 [2] was over 10000 nM.

C[C@H](CCC(=O)N1CCC(C(C)(C)O)CC1)[C@H]1CC[C@H]2[C@@H]3CC=C4C[C@@H](O)CC[C@]4(C)[C@H]3CC[C@]12C [Example 378, (R)-4-((3S,8S,9S,10R,13R,14S,17R)-3-hydroxy-10,13-dimethyl-2,3,4,7,8,9,10,11,12,13,14,15,16,17-tetradecahydro-1H-cyclopenta[a]phenanthren-17-yl)-1-(4-(2-hydroxypropan-2-yl)piperidin-1-yl)pentan-1-one] gave an IC50 [1] of under 250 nM and an EC50 [2] of over 10000 nM.

With C[C@H](CCC(=O)N1CCN(C(=O)OC2CC2)C[C@@H]1C)[C@H]1CC[C@H]2[C@@H]3CC=C4C[C@@H](O)CC[C@]4(C)[C@H]3CC[C@]12C [Example 584] the IC50 [1] was under 250 nM and the EC50 [2] was over 10000 nM.

C[C@H](CCC(=O)N(C)OCCC(F)(F)F)[C@H]1CC[C@H]2[C@@H]3CC=C4C[C@@H](O)CC[C@]4(C)[C@H]3CC[C@]12C [Example 29, (R)-4-((3S,8S,9S,10R,13R,14S,17R)-3-hydroxy-10,13-dimethyl-2,3,4,7,8,9,10,11,12,13,14,15,16,17-tetradecahydro-1H-cyclopenta[a]phenanthren-17-yl)-N-methyl-N-(3,3,3-trifluoropropoxy)pentanamide] showed an IC50 [1] of under 250 nM and an EC50 [2] of over 10000 nM.

Work on C[C@H](CCc1ncccc1Cl)[C@H]1CC[C@H]2[C@@H]3CC=C4C[C@@H](O)CC[C@]4(C)[C@H]3CC[C@]12C [Example 184, bis((1R,3aS,3bS,7S,9aR,9bS,11aR)-1-[(2R)-4-(3-chloropyridin-2-yl)butan-2-yl]-9a,11a-dimethyl-1H,2H,3H,3aH,3bH,4H,6H,7H,8H,9H,9aH,9bH,10H,11H,11aH-cyclopenta[a]phenanthren-7-ol)] yielded an IC50 [1] of under 250 nM and an EC50 [2] of 1000 to 10000 nM.

In the case of C[C@H](CCC(=O)N1CCN(c2ncncc2N)CC1)[C@H]1CC[C@H]2[C@@H]3CC=C4C[C@@H](O)CC[C@]4(C)[C@H]3CC[C@]12C [Example 632, (R)-1-(4-(5-aminopyrimidin-4-yl)piperazin-1-yl)-4-((3S,8S,9S,10R,13R,14S,17R)-3-hydroxy-10,13-dimethyl-2,3,4,7,8,9,10,11,12,13,14,15,16,17-tetradecahydro-1H-cyclopenta[a]phenanthren-17-yl)pentan-1-one], the IC50 [1] is reported as under 250 nM and the EC50 [2] is reported as over 10000 nM.

In the case of C[C@H](CCc1cc(F)ccn1)[C@H]1CC[C@H]2[C@@H]3CC=C4C[C@@H](O)CC[C@]4(C)[C@H]3CC[C@]12C [Example 163, (3S,8S,9S,10R,13R,14S,17R)-17-((R)-4-(4-fluoropyridin-2-yl)butan-2-yl)-10,13-dimethyl-2,3,4,7,8,9,10,11,12,13,14,15,16,17-tetradecahydro-1H-cyclopenta[a]phenanthren-3-ol], the IC50 [1] is reported as under 250 nM and the EC50 [2] is reported as 1000 to 10000 nM.

CNC(=O)OC[C@@H](C)[C@H]1CC[C@H]2[C@@H]3CC=C4C[C@@H](O)CC[C@]4(C)[C@H]3CC[C@]12C [Example 351, (S)-2-((3S,8S,9S,10R,13S,14S,17R)-3-hydroxy-10,13-dimethyl-2,3,4,7,8,9,10,11,12,13,14,15,16,17-tetradecahydro-1H-cyclopenta[a]phenanthren-17-yl)propyl methylcarbamate] showed an IC50 [1] of under 250 nM and an EC50 [2] of over 10000 nM.

Work on C[C@H](CCC(=O)N1CCC[C@@H](O)C1)[C@H]1CC[C@H]2[C@@H]3CC=C4C[C@@H](O)CC[C@]4(C)[C@H]3CC[C@]12C [Example 104, (R)-4-((3S,8S,9S,10R,13R,14S,17R)-3-hydroxy-10,13-dimethyl-2,3,4,7,8,9,10,11,12,13,14,15,16,17-tetradecahydro-1H-cyclopenta[a]phenanthren-17-yl)-1-((R)-3-hydroxypiperidin-1-yl) pentan-1-one] yielded an IC50 [1] of under 250 nM and an EC50 [2] of 250 to 1000 nM.

CNC(=O)c1cccnc1OC[C@@H](C)[C@H]1CC[C@H]2[C@@H]3CC=C4C[C@@H](O)CC[C@]4(C)[C@H]3CC[C@]12C [Example 253, 2-((S)-2-((3S,8S,9S,10R,13S,14S,17R)-3-hydroxy-10,13-dimethyl-2,3,4,7,8,9,10,11,12,13,14,15,16,17-tetradecahydro-1H-cyclopenta[a]phenanthren-17-yl)propoxy)-N-methylnicotinamide] gave an IC50 [1] of under 250 nM and an EC50 [2] of over 10000 nM.
